Consider 7 compounds from ChEMBL document CHEMBL1201862, “PubChem BioAssay data set” (2004).

Some test systems named below: OVCAR-8; UO-31; RXF 393; SR; HOP-92; SW-620; A549; SF-539; SN12C; NCI-H226; NCI-H23; T47D; SF-295; SNB-75; TK-10; M14; HL-60; HT-29; KM12; OVCAR-3.
Common to all, as to test: growth of human tumour cells (NCI), 48 h

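Five concentrations, 48 hours, 96-well plates. Abbreviation: GI50, concentration required for 50% inhibition of growth.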 Activity calls are given as the source filed them. No stated cut-off is given here; in the data, active = GI50 up to about 1.1 µM and inactive = higher. Where only a bound is given, the exact number is not on record here.

For the compound `CN(C)CCNC(=O)c1cccc2ccc(-c3ccc(O)cc3)nc12`, the GI50 is 1.38 µM (inactive) in the assay with OVCAR-8; 2.39 µM (inactive) in the assay with UO-31; 4.72 µM (inactive) with RXF 393; 2.47 µM (inactive) with SR; 3.03 µM (inactive) with HOP-92; 1.02 µM (active) in the assay on SW-620. Besides, the GI50 in the assay with A549 was 0.92 µM (active); with SF-539, 2.75 µM (inactive); in the assay with SN12C, 2.16 µM (inactive); in the assay on NCI-H226 it was 1.93 µM (inactive); in the assay on NCI-H23, 3.09 µM (inactive); in the assay with T47D, 3.09 µM (inactive). The GI50 with SF-295 is 2.13 µM (inactive); with SNB-75 it was 2.74 µM (inactive); in the assay on TK-10, 2.94 µM (inactive); in the assay on M14, 0.664 µM (active); in the assay on HL-60 it was 0.847 µM (active); in the assay with HT-29 it was 3.13 µM (inactive). The figures for the GI50 in the assay on KM12 and with OVCAR-3 were 4.54 µM (inactive) and 3.13 µM (inactive), respectively.
On to `CC(C)(C)OC(=O)N(CCCCN(CCCNC(=O)C(F)(F)F)C(=O)OC(C)(C)C)CCCNC(=O)C(F)(F)F`, for which the GI50 in the assay on OVCAR-8, with UO-31, with RXF 393, in the assay with SR, with HOP-92 and in the assay with SW-620 was > 100 µM (inactive) throughout. Moreover, the GI50 in the assay on A549, in the assay with SF-539, in the assay on SN12C, in the assay on NCI-H226, in the assay on NCI-H23 and in the assay with T47D was > 100 µM (inactive) in each case. The GI50 with SF-295 is > 100 µM (inactive); in the assay on SNB-75 it was > 100 µM (inactive); with TK-10, > 100 µM (inactive); in the assay with M14, > 100 µM (inactive); in the assay with HL-60, 60.3 µM (inactive); in the assay on HT-29 it was > 100 µM (inactive). For the same compound, the GI50 in the assay on KM12 is > 100 µM (inactive); in the assay on OVCAR-3 it was 45.3 µM (inactive).
Regarding `Cc1cc2c(s1)C(=O)c1sccc1C2=O`, the GI50 in the assay on OVCAR-8 was 0.424 µM (active); in the assay on UO-31, 0.805 µM (active); in the assay on RXF 393, 1.17 µM (inactive); with SR, 3.01 µM (inactive); with HOP-92, 1.52 µM (inactive); with SW-620, 0.275 µM (active). The GI50 in the assay on A549 was 0.625 µM (active); in the assay with SF-539, 0.248 µM (active); in the assay on SN12C it was 0.388 µM (active); with NCI-H226 it was 1.76 µM (inactive); in the assay on NCI-H23 it was 0.171 µM (active); with T47D, 1.63 µM (inactive). Further, the GI50 in the assay on SF-295 was 0.344 µM (active); in the assay on SNB-75, 0.397 µM (active); in the assay on TK-10, 2.85 µM (inactive); in the assay with M14 it was 0.176 µM (active); in the assay on HL-60, 3.34 µM (inactive); in the assay on HT-29, 2.04 µM (inactive). The GI50 is 1.63 µM (inactive) in the assay with KM12 and 0.83 µM (active) in the assay with OVCAR-3.
Regarding `CC(=O)Nc1cc([As](=O)(O)O)ccc1O` [ACETARSONE], the GI50 in the assay with OVCAR-8, in the assay on UO-31, in the assay with RXF 393, in the assay on SR, in the assay with HOP-92 and with SW-620 was > 100 µM (inactive) in each case. Also, the GI50 in the assay with A549, in the assay with SF-539, in the assay on SN12C, with NCI-H226, in the assay with NCI-H23 and in the assay on T47D was > 100 µM (inactive) each time. The GI50 with SF-295, in the assay with SNB-75, with TK-10, with M14, with HL-60 and with HT-29 was > 100 µM (inactive) each time. For the same compound, the GI50 in the assay on KM12 and with OVCAR-3 was > 100 µM (inactive) in each case.
With `O=C(Nc1cnc(O)nc1O)Oc1ccccc1`, the GI50 with OVCAR-8, in the assay with UO-31, with RXF 393, with SR, in the assay with HOP-92 and in the assay on SW-620 was > 100 µM (inactive) each time. Further, the GI50 in the assay with A549, in the assay on SF-539, in the assay with SN12C, with NCI-H226, in the assay with NCI-H23 and in the assay on T47D was > 100 µM (inactive) in each case. The GI50 is > 100 µM (inactive) with SF-295; > 100 µM (inactive) with SNB-75; > 100 µM (inactive) in the assay with TK-10; > 100 µM (inactive) with M14; 14.3 µM (inactive) in the assay with HL-60; > 100 µM (inactive) in the assay with HT-29. Besides, the GI50 in the assay on KM12 and in the assay with OVCAR-3 was > 100 µM (inactive) each time.
Regarding `COc1cc2ccc1OCc1cccc(n1)COc1ccc(cc1OC)/C=N\CCNCC/N=C\2`, the GI50 was > 100 µM (inactive) with OVCAR-8; > 100 µM (inactive) in the assay with UO-31; > 100 µM (inactive) with RXF 393; > 100 µM (inactive) in the assay with SR; 48.4 µM (inactive) in the assay with HOP-92; > 100 µM (inactive) in the assay on SW-620. Moreover, the GI50 is > 100 µM (inactive) with A549; > 100 µM (inactive) with SF-539; > 100 µM (inactive) in the assay on SN12C; > 100 µM (inactive) with NCI-H226; > 100 µM (inactive) in the assay with NCI-H23; 65.8 µM (inactive) with T47D. Besides, the GI50 in the assay on SF-295 is 41.7 µM (inactive); in the assay with SNB-75 it was 30.5 µM (inactive); in the assay on TK-10, > 100 µM (inactive); in the assay with M14 it was > 100 µM (inactive); in the assay on HL-60 it was > 100 µM (inactive); with HT-29 it was > 100 µM (inactive). Moreover, in the assay with OVCAR-3, the GI50 was > 100 µM (inactive).
As to `CCOC(=O)[C@H](CO)NC1=C(Cl)C(=O)c2c(O)ccc(O)c2C1=O`, the GI50 with OVCAR-8 is > 10 µM (inactive); in the assay on RXF 393, > 10 µM (inactive); in the assay on SR it was 5.22 µM (inactive); with HOP-92, > 10 µM (inactive); with SW-620, > 10 µM (inactive); in the assay on A549 it was > 10 µM (inactive). The GI50 in the assay with SF-539, in the assay on SN12C, in the assay on NCI-H226, with NCI-H23, in the assay on T47D and in the assay on SF-295 was > 10 µM (inactive) in each case. The GI50 in the assay with SNB-75 was > 10 µM (inactive); in the assay with TK-10 it was > 10 µM (inactive); in the assay with M14 it was > 10 µM (inactive); in the assay on HL-60 it was > 10 µM (inactive); in the assay with HT-29, 5.33 µM (inactive); with KM12, > 10 µM (inactive). In addition, the GI50 in the assay with OVCAR-3 was > 10 µM (inactive).
